Test results as given in US4604380A, “C-23-substituted mycaminosyltylonolide compounds, pharmaceutical compositions and methods of use” (Eli Lilly and Company, priority 1985, dated 1986).
Converted amounts (≈) assume the structure as drawn.

Tests used:
Staphylococcus aureus = experiment: ED50 vs. Staphylococcus aureus experimental infection in mice (Table V); assay type: in vivo; conditions: sc, subcutaneous, two doses, dose protecting 50% of animals, read-out: ED50 Subcutaneous
Protocol: (§1) Certain formula 1a compounds have also shown in vivo antimicrobial activity against experimental bacterial infections. When two doses of test compound were administered to mice in experimental infections, the activity observed was measured as an ED50 value [effective dose in mg/kg to protect 50% of the test animals: see Warren Wick, et al., J. Bacteriol. 81, 233-235 (1961)].

Pasteurella multocida = experiment: Activity in Pasteurella multocida-infected one-day-old chicks (Table VIII); assay type: in vivo; conditions: subcutaneous 30 mg/kg × 2, 1 and 4 hours post-challenge, all non-medicated chicks died within 24 hours
Protocol: Table VIII summarizes the results of tests in which illustrative compounds were evaluated against a Pasteurella infection in one-day-old chicks. The compounds were administered parenterally after challenge of the chicks with Pasteurella multocida (0.1 mL of a 10^-4 dilution of a twenty-hour tryptose broth culture of an avian P. multocida given subcutaneously). In these tests, all non-medicated infected chicks died within 24 hours of Pasteurella challenge. In the tests summarized in Table VIII, the compounds were administered by subcutaneous injection at a dosage of 30 mg/kg, 1 and 4 hours post-challenge of the chicks with P. multocida.

[1] = system: Streptococcus pneumoniae Park I; experiment: microbe, parasite or virus in culture; assay type: cell-based; conditions: Streptococcus pneumoniae; read-out: MIC
Protocol: (§2) The MIC's s in Table III were determined by standard agar-dilution assays. The MIC's in Table IV were obtained using a conventional broth-dilution microtiter test.

[2] = system: Staphylococcus aureus X1.1; experiment: MIC, standard agar-dilution assay (Table III); assay type: cell-based
Protocol: as §2

[3] = system: Staphylococcus aureus X400; experiment: MIC, standard agar-dilution assay (Table III); assay type: cell-based; conditions: Staphylococcus aureus, X400
Protocol: as §2

[4] = system: Staphylococcus epidermidis 222; experiment: MIC, standard agar-dilution assay (Table III); assay type: cell-based; conditions: agar dilution; Staphylococcus epidermidis 222; read-out: MIC
Protocol: as §2

[5] = system: Haemophilus influenzae C.L.; experiment: MIC, standard agar-dilution assay (Table III); assay type: cell-based; conditions: agar dilution; Haemophilus influenzae C.L., ampicillin-sensitive strain; read-out: MIC
Protocol: as §2

[6] = system: Staphylococcus aureus V41; experiment: MIC, standard agar-dilution assay (Table III); assay type: cell-based; conditions: Staphylococcus aureus V41, penicillin-resistant strain
Protocol: as §2

[7] = system: Streptococcus Group D X66; experiment: MIC, standard agar-dilution assay (Table III); assay type: cell-based
Protocol: as §2

[8] = system: Streptococcus pyogenes C203; experiment: MIC, standard agar-dilution assay (Table III); assay type: cell-based; conditions: agar dilution; Streptococcus pyogenes C203; read-out: MIC
Protocol: as §2

[9] = system: Staphylococcus epidermidis EPI1; experiment: MIC, standard agar-dilution assay (Table III); assay type: cell-based; conditions: Staphylococcus epidermidis, EPI1
Protocol: as §2

[10] = system: Staphylococcus aureus S13E; experiment: MIC, standard agar-dilution assay (Table III); assay type: cell-based
Protocol: as §2

[11] = system: Streptococcus Group D 2041; experiment: MIC, standard agar-dilution assay (Table III); assay type: cell-based; conditions: GROUPD2041
Protocol: as §2

[12] = system: Haemophilus influenzae 76; experiment: MIC, standard agar-dilution assay (Table III); assay type: cell-based; conditions: agar dilution; Haemophilus influenzae 76, ampicillin-resistant strain; read-out: MIC
Protocol: as §2

Streptococcus pyogenes = experiment: ED50 vs Streptococcus pyogenes experimental infection in mice (Table VI); assay type: in vivo; conditions: po, two doses, several values = results from more than one test, read-out: ED50 Oral
Protocol: as §1

[13] = system: Streptococcous pneumoniae; experiment: ED50 vs. Streptococcous pneumoniae experimental infection in mice (Table VII); assay type: in vivo; conditions: Mus musculus, sc, subcutaneous, two doses, read-out: ED50 Subcutaneous
Protocol: as §1

[14] = system: Pasteurella multocida 60A; experiment: MIC, conventional broth-dilution microtiter test (Table IV); assay type: cell-based; conditions: broth-dilution microtiter; Pasteurella multocida 60A, avian isolate; read-out: MIC
Protocol: as §2

[15] = system: Pasteurella hemolytica 23C; experiment: as above; assay type: cell-based; conditions: broth-dilution microtiter; Pasteurella hemolytica 23C; read-out: MIC
Protocol: as §2

[16] = system: Bordetella bronchisepticum 95B; experiment: as above; assay type: cell-based
Protocol: as §2

[17] = system: Pasteurella multocida 17E; experiment: as above; assay type: cell-based; conditions: broth-dilution microtiter; Pasteurella multocida 17E, bovine isolate; read-out: MIC
Protocol: as §2

[18] = system: Mycoplasma gallisepticum 36H; experiment: as above; assay type: cell-based; conditions: Mycoplasmoides gallisepticum, 36H
Protocol: as §2

Mycoplasma hyorhinis 29E = experiment: as above; assay type: cell-based; conditions: broth-dilution microtiter; Mycoplasma hyorhinis 29E; read-out: MIC
Protocol: as §2

Mycoplasma synoviae 40A = experiment: as above; assay type: cell-based; conditions: Mycoplasmopsis synoviae, 40A
Protocol: as §2

Streptococcus sp. 19F = experiment: as above; assay type: cell-based
Protocol: as §2

[19] = system: Pasteurella multocida 68C; experiment: as above; assay type: cell-based; conditions: broth-dilution microtiter; Pasteurella multocida 68C; read-out: MIC
Protocol: as §2

[20] = system: Pasteurella multocida 22A; experiment: as above; assay type: cell-based; conditions: broth-dilution microtiter; Pasteurella multocida 22A; read-out: MIC
Protocol: as §2

[21] = system: Mycoplasma hyopneumoniae S5972; experiment: as above; assay type: cell-based; conditions: Mesomycoplasma hyopneumoniae, S5972
Protocol: as §2

[22] = system: Mycoplasma gallisepticum 29C; experiment: as above; assay type: cell-based; conditions: Mycoplasmoides gallisepticum, 29C
Protocol: as §2

[23] = system: Pasteurella multocida 40G; experiment: as above; assay type: cell-based; conditions: broth-dilution microtiter; Pasteurella multocida 40G; read-out: MIC
Protocol: as §2

[24] = system: Pasteurella hemolytica 22C; experiment: as above; assay type: cell-based; conditions: broth-dilution microtiter; Pasteurella hemolytica 22C; read-out: MIC
Protocol: as §2

[25] = system: Pasteurella hemolytica 41D; experiment: as above; assay type: cell-based; conditions: broth-dilution microtiter; Pasteurella hemolytica 41D; read-out: MIC
Protocol: as §2

[26] = system: Staphylococcus aureus 19C; experiment: as above; assay type: cell-based; conditions: broth-dilution microtiter; Staphylococcus aureus 19C; read-out: MIC
Protocol: as §2

**Q.** How did the ED50 (Staphylococcus aureus) turn out when `CCC1OC(=O)CC(O)C(C)C(OC2OC(C)C(O)C(N(C)C)C2O)C(CC=O)CC(C)C(=O)C=CC(C)=CC1CN1CC2(C)CC1CC(C)(C)C2` (centres unmarked) [Compound 23, 23-deoxy-23-(1,3,3-trimethyl-6-azabicyclo[3.2.1]octan-6-yl)-OMT] was run?
**A.** 3.79 mg/kg

**Q.** And the “Number of Deaths/Number Treated” value (Pasteurella multocida)?
**A.** 10/10

**Q.** And the MIC [1]?
**A.** 0.06 µg/mL (≈ 0.0819 µM)

**Q.** And the MIC [2]?
**A.** 0.5 µg/mL (≈ 0.682 µM)

**Q.** What about the MIC [3] of the same compound?
**A.** 0.5 µg/mL (≈ 0.682 µM)

**Q.** What about the MIC [4] of the same compound?
**A.** 0.125 µg/mL (≈ 0.171 µM)

**Q.** And the MIC [5]?
**A.** 2 µg/mL (≈ 2.73 µM)

**Q.** And the MIC [6]?
**A.** 0.5 µg/mL (≈ 0.682 µM)

**Q.** What about the MIC [7] of the same compound?
**A.** 0.5 µg/mL (≈ 0.682 µM)

**Q.** And the MIC [8]?
**A.** 0.25 µg/mL (≈ 0.341 µM)

**Q.** What about the MIC [9] of the same compound?
**A.** 0.5 µg/mL (≈ 0.682 µM)

**Q.** What about the MIC [10] of the same compound?
**A.** 0.5 µg/mL (≈ 0.682 µM)

**Q.** And the MIC [11]?
**A.** 0.5 µg/mL (≈ 0.682 µM)

**Q.** And the MIC [12]?
**A.** 1 µg/mL (≈ 1.36 µM)

**Q.** And the ED50 (Streptococcus pyogenes)?
**A.** 100 mg/kg

**Q.** And the ED50 [13]?
**A.** 3.6 mg/kg

**Q.** What about the MIC [14] of the same compound?
**A.** 1.56 µg/mL (≈ 2.13 µM)

**Q.** What about the MIC [15] of the same compound?
**A.** 1.56 µg/mL (≈ 2.13 µM)

**Q.** And the MIC [16]?
**A.** 12.5 µg/mL (≈ 17.1 µM)

**Q.** And the MIC [17]?
**A.** 0.78 µg/mL (≈ 1.06 µM)

**Q.** And the MIC [18]?
**A.** 3.12 µg/mL (≈ 4.26 µM)

**Q.** And the MIC (Mycoplasma hyorhinis 29E)?
**A.** 1.56 µg/mL (≈ 2.13 µM)

**Q.** What about the MIC (Mycoplasma synoviae 40A) of the same compound?
**A.** < 0.048 µg/mL

**Q.** And the MIC (Streptococcus sp. 19F)?
**A.** < 0.048 µg/mL

**Q.** And the MIC [19]?
**A.** 0.78 µg/mL (≈ 1.06 µM)

**Q.** And the MIC [20]?
**A.** 0.39 µg/mL (≈ 0.532 µM)

**Q.** What about the MIC [21] of the same compound?
**A.** 0.048 µg/mL (≈ 0.0655 µM)

**Q.** And the MIC [22]?
**A.** < 0.048 µg/mL

**Q.** What about the MIC [23] of the same compound?
**A.** 0.78 µg/mL (≈ 1.06 µM)

**Q.** And the MIC [24]?
**A.** 1.56 µg/mL (≈ 2.13 µM)

**Q.** And the MIC [25]?
**A.** 1.56 µg/mL (≈ 2.13 µM)

**Q.** And the MIC [26]?
**A.** 1.56 µg/mL (≈ 2.13 µM)
